Experimental data published in the NIST ThermoML archive (doi:10.1016/j.jct.2011.02.008).
Numbers after ± are expanded uncertainties.

Settings: Liquid, Vibrating tube method

C1CCCCC1 [cyclohexane]
mass density [kg/m3]
Settings	288.15 K	298.15 K	308.15 K	318.15 K	328.15 K	338.15 K	348.15 K	358.15 K
100 kPa	782.7 ± 2.4	773.2 ± 2.4	763.6 ± 2.4	754 ± 2.4	744.4 ± 2.4	734.5 ± 2.4	724.6 ± 2.4	714.3 ± 2.4
1000 kPa	783.7 ± 2.4	774 ± 2.4	764.5 ± 2.4	755 ± 2.4	745.4 ± 2.4	735.6 ± 2.4	725.7 ± 2.4	715.6 ± 2.4
5000 kPa	787 ± 2.4	777.6 ± 2.4	768.2 ± 2.4	759 ± 2.4	749.7 ± 2.4	740.2 ± 2.4	730.8 ± 2.4	720.9 ± 2.4
10000 kPa	790.7 ± 2.4	781.8 ± 2.4	772.6 ± 2.4	763.7 ± 2.4	754.7 ± 2.4	745.7 ± 2.4	736.5 ± 2.4	727.2 ± 2.4
15000 kPa	794.1 ± 2.4	785.6 ± 2.4	776.8 ± 2.4	767.9 ± 2.4	759.5 ± 2.4	750.7 ± 2.4	741.9 ± 2.4	732.9 ± 2.4
20000 kPa	–	789.3 ± 2.4	780.8 ± 2.4	772.4 ± 2.4	764 ± 2.4	755.5 ± 2.4	747 ± 2.4	738.3 ± 2.4
25000 kPa	–	792.9 ± 2.4	784.6 ± 2.4	776.4 ± 2.4	768.2 ± 2.4	760 ± 2.4	751.7 ± 2.4	743.3 ± 2.4
30000 kPa	–	796.8 ± 2.4	788.3 ± 2.4	780.3 ± 2.4	772.3 ± 2.4	764.3 ± 2.4	756.2 ± 2.4	748.1 ± 2.4
35000 kPa	–	799.7 ± 2.4	791.8 ± 2.4	784.1 ± 2.4	776.1 ± 2.4	768.4 ± 2.4	760.5 ± 2.4	752.6 ± 2.4
40000 kPa	–	–	795.2 ± 2.4	787.7 ± 2.4	779.9 ± 2.4	772.3 ± 2.4	764.6 ± 2.4	757 ± 2.4
45000 kPa	–	–	–	791.1 ± 2.4	783.5 ± 2.4	776 ± 2.4	768.6 ± 2.4	761.1 ± 2.5
50000 kPa	–	–	–	794.4 ± 2.4	787 ± 2.4	779.7 ± 2.5	772.3 ± 2.5	765 ± 2.5
55000 kPa	–	–	–	–	–	783.2 ± 2.5	776 ± 2.5	768.9 ± 2.5
